For series [1], the system named is SMCs (human aortic smooth muscle cells). The series is described as follows: Cell cytotoxicity, colorimetric MTT assay. The protocol:
SMCs (human aortic smooth muscle cells, Cambrex, USA) were cultured in SmGM-2 BulletKit (Cambex, USA) medium containing 10% FBS (Cambrex, USA), with 100× antibiotics (Cambex, USA) added thereto, and subcultured by using 1×trypsin-EDTA (Gibco BRL, USA) with maintaining the condition of 37° C., 5% CO2.
Before confirming whether ginsenoside and red ginseng extract affect the growth of muscle cell, the cell cytotoxicity was determined as the effect of cell cytotoxicity induced by ginsenosides Rk1, Rg3, and Rg5, red ginseng extract, and the present composition in muscle cell.
The cell cytotoxicity to the sample was determined by colorimetric MTT assay (Scudiero D. A. et al., Cancer Res., 48:4827-4833, 1988). That is, the muscle cell was plated to 96 wells microtiter tissue culture plate (Falcon) by 1×10^4 cells/ml, and then each well was treated with the sample, cultured for a certain period of time, treated with MTT sample, and melted with solubilization solution when formazan was formed, and the absorbance was determined at 540 nm.

Series [2] has the same test system. The series is described as follows: Cell proliferation ELISA BrdU assay. Type of series: cell-based. Conditions: for inhibition at 5 µg/mL: Homo sapiens, at the concentration of 5 μg/ml, FIGS. 3 and 4, read-out: inhibition of the growth of muscle cell; for inhibition of the growth of muscle cell (in words): absorbance 450 nm, FIGS. 3 and 4. The protocol: To determine the effects of cell proliferation by the sample, Cell proliferation ELISA BrdU assay kit (Roche, USA) was purchased and used. Cells were put into 96 wells plate, treated with the sample after cultivation, and cultured for a certain period of time. At a certain point of time, BrdU labeling solution was added into the cells, which in turn were reacted at 37° C., in 5% CO2 for 2 hr. Then, FixDenat was added thereto, and the mixture was reacted at the room temperature for 30 min. And, Anti-BrdU-POD working solution was added thereto, and the mixture was reacted at the room temperature for 1 hr and 30 min. Afterwards, substrate solution was added thereto, and the mixture was reacted at the room temperature for 20 min. The reaction was stopped by using sulphuric acid, and then the absorbance was determined at 450 nm.
A general note: ELISA stands for enzyme-linked immunosorbent assay.

Where [3] appears, read: MTT, absorbance 540 nm, proper concentration, FIGS. 1 and 2.

Read-outs that look alike come from different tables or passages of the source.

The values that follow come from patent US20080311169A1, “Composition Comprising Ginsenosides for Treating or Preventing Angiostenosis and Restenosis” (priority 2004, published 2008).

As to `CC(C)=CCC[C@](C)(O)[C@H]1CC[C@]2(C)[C@@H]1[C@H](O)C[C@@H]1[C@@]3(C)CC[C@H](O[C@@H]4O[C@H](CO)[C@@H](O)[C@H](O)[C@H]4O[C@@H]4O[C@H](CO)[C@@H](O)[C@H](O)[C@H]4O)C(C)(C)[C@@H]3CC[C@]12C` [Rg3, ginsenoside Rg3], in series [1], the “cell cytotoxicity in muscle cell” value is given as “no cell cytotoxicity was found”. For the same compound, in series [2], the inhibition (as a rule, the relative decrease from the control value, in per cent) at 5 µg/mL was 50% and the “inhibition of the growth of muscle cell (in words)” value (shortened to “inhibition … (in words)”) was “inhibited the growth of muscle cell”.
In the case of `CC(C)=CC/C=C(/C)C1CCC2(C)C1C(O)CC1C3(C)CCC(OC4OC(CO)C(O)C(O)C4OC4OC(CO)C(O)C(O)C4O)C(C)(C)C3CCC12C` (centres unmarked) [Rg5, ginsenoside Rg5], the “cell cytotoxicity in muscle cell” value in series [1] (setting [3]) is given as “no cell cytotoxicity was found”. In series [2], the inhibition at 5 µg/mL stood at 50% and the “inhibition … (in words)” value is recorded as “inhibited the growth of muscle cell”.
As for `C=C(CCC=C(C)C)C1CCC2(C)C1C(O)CC1C3(C)CCC(OC4OC(CO)C(O)C(O)C4OC4OC(CO)C(O)C(O)C4O)C(C)(C)C3CCC12C` (centres unmarked) [Rk1, ginsenoside Rk1], in series [1] (setting [3]), the “cell cytotoxicity in muscle cell” value is on record as “no cell cytotoxicity was found”. In series [2], the “inhibition … (in words)” value is “inhibited the growth of muscle cell”.
